The record followed here is ChEMBL document CHEMBL4613224, “Synthesis, in-vitro antiprotozoal activity and molecular docking study of isothiocyanate derivatives” (Bioorg Med Chem, 2020).

The subject of one data set is Trypanosoma cruzi. In words: Antitrypanosomal activity against Trypanosoma cruzi Tulahuen C4 trypomastigotes infected in rat L6 cells assessed as parasite growth inhibition at 2 ug/ml measured after 96 hrs by inverted microscopy analysis relative to control. It is filed as functional.
For data set [1], the system named is Trypanosoma brucei rhodesiense. Description: Antitrypanosomal activity against bloodstream Trypanosoma brucei rhodesiense STIB900 assessed as parasite growth inhibition at 2 ug/ml measured after 70 hrs by Alamar blue assay relative to control. Particulars: for inhibition at 2 µg/mL: STIB900, 70 h. It counts as functional.
Data set [2] concerns Leishmania donovani. Description: Antileishmanial activity against Leishmania donovani MHOM-ET-67/L82 axenic amastigotes assessed as parasite growth inhibition at 2 to 10 ug/ml measured after 72 hrs by Alamar blue based inverted microscopy analysis relative to control. It counts as functional.
Data set [3] relates to Trypanosoma brucei rhodesiense. In words: Antitrypanosomal activity against bloodstream Trypanosoma brucei rhodesiense STIB900 assessed as parasite growth inhibition measured after 70 hrs by Alamar blue assay. It counts as functional, organism-based. Particulars: STIB900, 70 h. In general terms: The colour change of resazurin is a common sign of viable cells or microbes.
In data set [4] the test system is Leishmania donovani. Description: Antileishmanial activity against Leishmania donovani MHOM-ET-67/L82 axenic amastigotes assessed as parasite growth inhibition measured after 72 hrs by Alamar blue based inverted microscopy analysis. It is filed as functional, organism-based. Particulars: MHOM-ET-67/L82, 72 h.
The subject of another data set is L6. Description: Cytotoxicity against rat L6 cells assessed as reduction in cell viability measured after 72 hrs by Alamar blue based inverted microscopy analysis. Particulars: L6, 72 h.
A further data set has as its system Plasmodium falciparum. Description: Antiplasmodial activity against Plasmodium falciparum NF54 measured after 24 hrs in presence of [3H] hypoxanthine by liquid scintillation counter analysis. It counts as functional, organism-based.
Data set [5] in a line: Selectivity index, ratio of IC50 for rat L6 cells assessed as reduction in cell viability measured after 72 hrs by Alamar blue based inverted microscopy analysis to IC50 for bloodstream Trypanosoma brucei rhodesiense STIB900 assessed as parasite growth inhibition measured after 70 hrs by Alamar blue assay. Particulars: read-out: Ratio IC50. It is filed as toxicity.
Data set [6] in a line: Selectivity index, ratio of IC50 for rat L6 cells assessed as reduction in cell viability measured after 72 hrs by Alamar blue based inverted microscopy analysis to IC50 for Leishmania donovani MHOM-ET-67/L82 axenic amastigotes assessed as parasite growth inhibition measured after 72 hrs by Alamar blue based inverted microscopy analysis. Particulars: L6 cells, read-out: Ratio IC50. It is filed as toxicity.

A short description of data set [7]: Selectivity index, ratio of IC50 for rat L6 cells assessed as reduction in cell viability measured after 72 hrs by Alamar blue based inverted microscopy analysis to IC50 for Plasmodium falciparum NF54 measured after 24 hrs in presence of [3H] hypoxanthine by liquid scintillation counter analysis. It is filed as toxicity. Particulars: read-out: Ratio IC50.

pIC50: −log10 of the molar value. Active and inactive are the calls of the source. No cut-off for these calls is given here.

With `S=C=NCc1ccccc1` [BENZYL ISOTHIOCYANATE], the inhibition result in the data set with Trypanosoma cruzi and with Leishmania donovani [2] was “inactive” each time. The inhibition – broadly, the relative decrease from the control value, in per cent – at 2 µg/mL in data set [1] is > 50%.

`COc1ccc2c(c1OC)CO[C@@H]2[C@H]1c2c(cc3c(c2OC)OCO3)CCN1C(CN=C=S)c1ccc2c(c1)Cc1ccccc1-2` (stereo partly specified): the pIC50 (commonly the IC50 on a negative log10 scale, so that one unit is a factor of ten) in [3] was 5.19; in the data set on Leishmania donovani [4], 5.89; in the data set with L6 (read-out: IC50), 5.41; in the data set on Plasmodium falciparum, 5.59. In addition, in the data set with Trypanosoma cruzi, the inhibition entry is “inactive”. Also, the figures for the selectivity ratio at 72 h in data set [5], in data set [6] and in [7] were 0.6, 3.1 and 1.5, respectively. For the same compound, the inhibition at 2 µg/mL in data set [1] is > 50%. Also, in the data set on Leishmania donovani [2], the “inhibition (INH)” value is on record as >90%.

`COc1ccc2c(c1OC)CO[C@@H]2[C@H]1c2c(cc3c(c2OC)OCO3)CCN1C(CN)c1ccc(C)cc1` (stereo partly specified): the results for the pIC50 (in data set [3]; with L6 (read-out: IC50); in the data set on Plasmodium falciparum) were 6.00, 4.63 and 5.74, respectively. Moreover, the values for the selectivity ratio at 72 h in data set [5] and in data set [7] were 24.4 and 12.8, respectively. Moreover, in data set [1], the inhibition at 2 µg/mL is > 50%.

For the compound `COc1ccc2c(c1OC)CO[C@@H]2[C@H]1c2c(cc3c(c2OC)OCO3)CCN1C(CN=C=S)c1ccccc1` (stereo partly specified), the pIC50 in data set [3] was 5.64; in the data set on Leishmania donovani [4], 6.00; in the data set with L6 (read-out: IC50), 4.73; with Plasmodium falciparum, 5.43. Also, the inhibition entry in the data set with Trypanosoma cruzi is “inactive”. Further, the selectivity ratio at 72 h in [5] stood at 8.2; in data set [6] it was 18.4; in data set [7], 5.07. Further, in data set [1], the inhibition at 2 µg/mL was > 50%. The “inhibition (INH)” value in the data set on Leishmania donovani [2] was >90%.

As to `S=C=NCCc1c[nH]c2ccccc12`, the pIC50 is 5.40 in data set [3], 5.77 in the data set with Leishmania donovani [4], 5.15 with L6 (read-out: IC50) and 4.99 with Plasmodium falciparum. In the data set on Trypanosoma cruzi, the inhibition entry is “inactive”. In addition, the selectivity ratio at 72 h was determined as 1.8 in data set [5], 4.2 in data set [6] and 0.7 in data set [7]. For the same compound, the inhibition at 2 µg/mL in [1] was > 50%. In the data set on Leishmania donovani [2], the “inhibition (INH)” value was >90%.

Turning to `C[C@@H](CCCN=C=S)[C@H]1CC[C@H]2[C@@H]3CC[C@@H]4C[C@H](O)CC[C@]4(C)[C@H]3CC[C@]12C`, the negative logarithm of the IC50 (pIC50) in [3] is 5.01; in the data set with Leishmania donovani [4], 5.27; in the data set on L6 (read-out: IC50) it was 5.35; in the data set on Plasmodium falciparum, 5.39. Besides, the inhibition result with Trypanosoma cruzi is “inactive”. For the same compound, the results for the selectivity ratio at 72 h in [5], in data set [6] and in data set [7] were 0.5, 0.8 and 1.1, respectively. Also, the inhibition at 2 µg/mL in [1] was > 50%. Further, the “inhibition (INH)” value in the data set with Leishmania donovani [2] is >90%.

Regarding `C[C@@H](CCC(N)=O)[C@H]1CC[C@H]2[C@@H]3CC[C@@H]4C[C@H](O)CC[C@]4(C)[C@H]3C[C@H](O)[C@]12C`, the inhibition entry in [1] was “inactive”.

For the compound `C[C@@H](CCC(N)=O)[C@H]1CC[C@H]2[C@@H]3CC[C@@H]4C[C@H](O)CC[C@]4(C)[C@H]3CC[C@]12C`, the inhibition entry in [1] is “inactive”.

On to `COc1ccc(N=C=S)cc1OC`, for which the inhibition result in the data set on Trypanosoma cruzi and in the data set with Leishmania donovani [2] was “inactive” in each case. The inhibition at 2 µg/mL in [1] amounted to 50%.

Regarding `C[C@@H](CCC(N)=O)[C@H]1CC[C@H]2[C@@H]3[C@H](O)C[C@@H]4C[C@H](O)CC[C@]4(C)[C@H]3C[C@H](O)[C@]12C`, the inhibition result in data set [1] was “inactive”.

Take `COc1cc([C@@H]2c3cc4c(cc3[C@H](O)[C@H]3COC(=O)[C@H]23)OCO4)cc(OC)c1OC` [PODOFILOX]: the pIC50 in the data set with L6 is 7.92.

Take `COc1ccc2c(c1OC)CO[C@@H]2[C@H]1c2c(cc3c(c2OC)OCO3)CCN1C(CN)c1ccc2c(c1)Cc1ccccc1-2` (stereo partly specified): the values for the pIC50 (in data set [3]; in the data set on L6 (read-out: IC50); in the data set on Plasmodium falciparum) were 5.46, 4.71 and 5.74, respectively. For the same compound, the values for the selectivity ratio at 72 h in [5] and in data set [7] were 5.6 and 11.2, respectively. Besides, in data set [1], the inhibition at 2 µg/mL is > 50%.

As for `Nc1nc(N)nc(Nc2ccc([As]3SCC(CO)S3)cc2)n1` (stereo unspecified) [MELARSOPROL], the pIC50 in the data set on L6 (read-out: IC50) was 4.62. Moreover, in data set [5], the selectivity ratio at 72 h was 3230.

`COc1ccc2c(c1OC)CO[C@@H]2[C@H]1c2c(cc3c(c2OC)OCO3)CCN1C(CN=C=S)c1ccc(C)cc1` (stereo partly specified): the pIC50 in data set [3] is 5.51; in the data set with Leishmania donovani [4] it was 6.10; in the data set with L6 (read-out: IC50), 5.82; in the data set on Plasmodium falciparum, 5.96. In addition, the inhibition entry in the data set with Trypanosoma cruzi is “inactive”. The selectivity ratio at 72 h is 0.5 in data set [5], 1.7 in data set [6] and 1.4 in data set [7]. In addition, the inhibition at 2 µg/mL in [1] is > 50%. Further, in the data set on Leishmania donovani [2], the “inhibition (INH)” value is given as >90%.

Regarding `COc1ccc2c(c1OC)CO[C@@H]2[C@H]1c2c(cc3c(c2OC)OCO3)CCN1[C@@H](CN)c1cccnc1`, the pIC50 in data set [3] was 5.41; in the data set with L6 (read-out: IC50) it was 4.84. Further, the selectivity ratio at 72 h in data set [5] worked out at 3.7. Moreover, in data set [1], the inhibition at 2 µg/mL was > 50%.

Turning to `COc1ccc2c(c1OC)CO[C@@H]2[C@H]1c2c(cc3c(c2OC)OCO3)CCN1C(CN)c1ccccc1` (stereo partly specified), the negative logarithm of the IC50 (pIC50) is 5.85 in data set [3], 4.92 in the data set with L6 (read-out: IC50) and 5.70 in the data set with Plasmodium falciparum. Besides, the selectivity ratio at 72 h turned out to be 8.8 in [5] and 6 in [7]. Further, in data set [1], the inhibition at 2 µg/mL is > 50%.

Take `C[C@@H](CCCN=C=S)[C@H]1CC[C@H]2[C@@H]3[C@@H](O)C[C@@H]4C[C@H](O)CC[C@]4(C)[C@H]3CC[C@]12C`: the pIC50 in data set [3] is 5.80; in the data set with L6 (read-out: IC50) it was 5.37. Besides, the inhibition result with Trypanosoma cruzi was “inactive”. For the same compound, the selectivity ratio at 72 h in data set [5] was found to be 2.7. In addition, the inhibition at 2 µg/mL in [1] was > 50%. Also, the “inhibition (INH)” value in the data set on Leishmania donovani [2] is listed as >90%.

For `Fc1ccc(N=C=S)cc1`, the pIC50 in [3] is 4.33; in the data set on L6 (read-out: IC50), 3.54. For the same compound, the inhibition entry in the data set on Trypanosoma cruzi and with Leishmania donovani [2] was “inactive” in each case. Further, the selectivity ratio at 72 h in data set [5] was found to be 6.2. In addition, the inhibition at 2 µg/mL in [1] is > 50%.

Take `CCc1ccccc1N=C=S`: the inhibition entry in the data set with Trypanosoma cruzi and in the data set with Leishmania donovani [2] was “inactive” each time. Further, the inhibition at 2 µg/mL in data set [1] was > 50%.

Regarding `COC(=O)[C@H](Cc1ccccc1)N=C=S`, the inhibition result in the data set on Trypanosoma cruzi was “inactive”. For the same compound, the pIC50 in the data set with Leishmania donovani [4] was 6.00; in the data set on L6 (read-out: IC50) it was 4.86. Moreover, the selectivity ratio at 72 h in [6] amounted to 14.4. In data set [1], the inhibition at 2 µg/mL is > 50%. Further, the “inhibition (INH)” value in the data set on Leishmania donovani [2] is listed as >90%.

`Cc1ccc(N=C=S)cc1`: the pIC50 in data set [3] was 4.43; in the data set on L6 (read-out: IC50), 3.49. The inhibition result in the data set with Trypanosoma cruzi and in the data set with Leishmania donovani [2] was “inactive” throughout. In addition, the selectivity ratio at 72 h in data set [5] amounted to 8.8. Besides, the inhibition at 2 µg/mL in data set [1] is > 50%.
